Reference: PubChem BioAssay (NCI)
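Grown in 96-well plates, cells were treated for 48 hours with each compound at five concentrations. Insufficient inhibition: endpoint recorded as highest concentration tested. Abbreviation: GI50, concentration required for 50% inhibition of growth. TGI: concentration producing complete growth inhibition.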 Activity calls are given as the source filed them. No stated cut-off is given here; in the data, active means GI50 below about 0.43 µM; inactive means the rest.

Tests used:
Assay in all cases: inhibition of tumour cell growth, NCI panel, 48 h
[1] = tested on: 786-0 renal
[2] = tested on: A498 renal
[3] = tested on: A549 NSCLC
[4] = tested on: BT-549 breast
[5] = tested on: CAKI-1 renal
[6] = tested on: CCRF-CEM leukemia
[7] = tested on: COLO 205 colon
[8] = tested on: DLD-1 colon
[9] = tested on: DMS 273 small cell lung
[10] = tested on: DU-145 prostate
[11] = tested on: EKVX NSCLC
[12] = tested on: HCC-2998 colon
[13] = tested on: HL-60(TB) leukemia
[14] = tested on: HS 578T breast
[15] = tested on: K-562 leukemia
[16] = tested on: KM12 colon
[17] = tested on: KM20L2 colon
[18] = tested on: LXFL 529 NSCLC
[19] = tested on: M14 melanoma
[20] = tested on: M19-MEL melanoma
[21] = tested on: MALME-3M melanoma
[22] = tested on: MCF7 breast
[23] = tested on: MDA-MB-231 breast
[24] = tested on: MDA-N
[25] = tested on: MOLT-4 leukemia
[26] = tested on: NCI-H226 lung
[27] = tested on: NCI-H23 lung
[28] = tested on: NCI-H522 lung
[29] = tested on: NCI/ADR-RES ovarian
[30] = tested on: OVCAR-3 ovarian
[31] = tested on: OVCAR-4 ovarian
[32] = tested on: PC-3 prostate
[33] = tested on: RPMI-8226 leukemia
[34] = tested on: RXF 393 renal
[35] = tested on: SF-268 CNS
[36] = tested on: SF-295 CNS
[37] = tested on: SF-539 CNS
[38] = tested on: SK-MEL-5 melanoma
[39] = tested on: SK-OV-3 ovarian
[40] = tested on: SN12C renal
[41] = tested on: SNB-19 CNS
[42] = tested on: SNB-75 CNS
[43] = tested on: SNB-78 CNS
[44] = tested on: SR leukemia
[45] = tested on: SW-620 colon
[46] = tested on: T-47D breast
[47] = tested on: U251 CNS
[48] = tested on: UACC-257 melanoma
[49] = tested on: UACC-62 melanoma
[50] = tested on: UO-31 renal

C=CC(=O)C#CC#CC/C=C\CCCCCCC
TGI [1]: > 18.4 µM
outcome [1]: inactive
TGI [2]: > 20.6 µM
outcome [2]: inactive
TGI [3]: > 20.6 µM
outcome [3]: inactive
TGI [4]: > 20.6 µM
TGI [5]: > 20.6 µM
outcome [5]: inactive
TGI [6]: > 17.3 µM
outcome [6]: inactive
TGI [7]: > 20.6 µM
outcome [7]: inactive
TGI [8]: > 20.6 µM
TGI [9]: > 20.6 µM
TGI [10]: > 20.6 µM
outcome [10]: inactive
TGI [11]: > 20.6 µM
outcome [11]: inactive
TGI [12]: > 20.6 µM
outcome [12]: inactive
TGI [13]: > 20.6 µM
outcome [13]: inactive
TGI [14]: > 20.6 µM
outcome [14]: inactive
TGI [15]: > 20.6 µM
outcome [15]: inactive
TGI [16]: > 20.6 µM
outcome [16]: inactive
TGI [17]: > 20.6 µM
TGI [18]: > 20.6 µM
TGI [19]: > 20.6 µM
outcome [19]: inactive
TGI [20]: > 20.6 µM
TGI [21]: > 20.6 µM
outcome [21]: inactive
TGI [22]: > 20.6 µM
outcome [22]: inactive
TGI [23]: > 20.6 µM
outcome [23]: inactive
outcome [24]: inactive
TGI [25]: 12.3 µM
outcome [25]: inactive
TGI [26]: > 20.6 µM
outcome [26]: inactive
TGI [27]: > 20.6 µM
outcome [27]: inactive
TGI [28]: > 20.6 µM
outcome [28]: inactive
TGI [29]: > 20.6 µM
outcome [29]: inactive
TGI [30]: > 20.6 µM
outcome [30]: inactive
TGI [31]: > 20.6 µM
outcome [31]: inactive
outcome [32]: inactive
TGI [33]: > 18.6 µM
outcome [33]: inactive
TGI [34]: > 19.5 µM
outcome [34]: inactive
TGI [35]: > 20.6 µM
outcome [35]: inactive
TGI [36]: > 20.6 µM
outcome [36]: inactive
TGI [37]: > 20.6 µM
outcome [37]: inactive
TGI [38]: > 20.6 µM
outcome [38]: inactive
TGI [39]: > 20.6 µM
outcome [39]: inactive
TGI [40]: > 20.6 µM
outcome [40]: inactive
TGI [41]: > 20.6 µM
outcome [41]: inactive
TGI [42]: > 20.6 µM
outcome [42]: inactive
TGI [43]: > 20.6 µM
TGI [44]: 14.2 µM
outcome [44]: inactive
TGI [45]: > 20.6 µM
outcome [45]: inactive
TGI [46]: > 20.6 µM
outcome [46]: inactive
TGI [47]: > 20.6 µM
outcome [47]: inactive
TGI [48]: > 20.6 µM
outcome [48]: inactive
TGI [49]: > 20.6 µM
outcome [49]: inactive
TGI [50]: > 20.6 µM
outcome [50]: inactive

C[CH2][Sn]([CH2]C)([O]C(=O)c1ccccc1F)[O]C(=O)c1ccccc1F
GI50 [1]: 33.3 µM
TGI [1]: > 69.3 µM
GI50 [2]: 18.5 µM
TGI [2]: 35.5 µM
GI50 [3]: > 100 µM
TGI [3]: > 100 µM
GI50 [4]: 18.1 µM
TGI [4]: 35.8 µM
GI50 [5]: 11.9 µM
TGI [5]: 19.6 µM
GI50 [6]: 8.77 µM
TGI [6]: 35.6 µM
GI50 [7]: 38.8 µM
TGI [7]: 62.3 µM
GI50 [8]: 29.8 µM
TGI [8]: > 91.3 µM
GI50 [9]: > 67 µM
TGI [9]: > 100 µM
GI50 [10]: > 100 µM
TGI [10]: > 100 µM
GI50 [11]: > 100 µM
TGI [11]: > 100 µM
GI50 [12]: > 100 µM
TGI [12]: > 100 µM
GI50 [13]: > 45.2 µM
TGI [13]: > 100 µM
GI50 [14]: 42.2 µM
TGI [14]: > 100 µM
GI50 [15]: 16.2 µM
TGI [15]: 55.1 µM
GI50 [16]: > 100 µM
TGI [16]: > 100 µM
GI50 [17]: > 83.8 µM
TGI [17]: > 100 µM
GI50 [18]: 11.1 µM
TGI [18]: 24.2 µM
GI50 [19]: 30.4 µM
TGI [19]: 56.8 µM
GI50 [20]: 29.8 µM
TGI [20]: > 77.2 µM
GI50 [21]: 16.5 µM
TGI [21]: 31.4 µM
GI50 [22]: 27.4 µM
TGI [22]: 80.6 µM
GI50 [23]: > 100 µM
TGI [23]: > 100 µM
GI50 [24]: > 100 µM
TGI [24]: > 100 µM
GI50 [25]: 28.8 µM
TGI [25]: > 91 µM
GI50 [26]: 14.7 µM
TGI [26]: 22.1 µM
GI50 [27]: 22.6 µM
TGI [27]: 45 µM
GI50 [28]: 2.1 µM
TGI [28]: 6.84 µM
GI50 [29]: > 100 µM
TGI [29]: > 100 µM
GI50 [30]: > 100 µM
TGI [30]: > 100 µM
GI50 [31]: > 100 µM
TGI [31]: > 100 µM
GI50 [32]: > 100 µM
TGI [32]: > 100 µM
GI50 [33]: 17.2 µM
TGI [33]: 45.7 µM
GI50 [34]: 15.4 µM
TGI [34]: 35.4 µM
GI50 [35]: 32.1 µM
TGI [35]: 50.8 µM
GI50 [36]: > 62 µM
TGI [36]: > 84.6 µM
GI50 [37]: 23.2 µM
TGI [37]: 29.4 µM
GI50 [38]: 50.2 µM
TGI [38]: > 100 µM
GI50 [39]: > 100 µM
TGI [39]: > 100 µM
GI50 [40]: > 75 µM
TGI [40]: > 100 µM
GI50 [41]: 36.6 µM
TGI [41]: 60.6 µM
GI50 [42]: 21.7 µM
TGI [42]: > 53.4 µM
GI50 [43]: 20.6 µM
TGI [43]: 39 µM
GI50 [44]: 22.6 µM
TGI [44]: > 100 µM
GI50 [45]: 28.3 µM
TGI [45]: 73.7 µM
GI50 [46]: 11.8 µM
TGI [46]: 24.4 µM
GI50 [47]: 47.4 µM
TGI [47]: > 85.1 µM
GI50 [48]: 32 µM
TGI [48]: > 46.4 µM
GI50 [49]: 27.2 µM
TGI [49]: 52.4 µM
GI50 [50]: > 55.2 µM
TGI [50]: > 67.3 µM
